Test [1] concerns the target T1, HiBit-BRG1 fusion protein (Homo sapiens, UniProt P51532).
T1 construct: expressed in transfected cells
Put plainly: HiBiT-BRG1 cell-based degradation assay (Nano-Glo HiBiT lytic detection, 24 h). The following applies: HeLa cell line expressing HiBit-BRG1 and LgBit; for Dmax: read-out: BRG1 HiBit Degradation Maximum (%). The method, boiled down:
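Luminescence from HiBiT/LgBiT complementation after lytic detection reagent was read following 24 h compound exposure of HeLa cells stably carrying HiBiT-BRG1 plus LgBiT (5000 cells/well). Signal scaled to % degradation using DMSO-treated cells as 0% and cells given 2 μM known BRM/BRG1 degrader as 100%.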

A further test addresses T2, HiBit-BRM fusion protein (Homo sapiens, UniProt P51531).
T2 construct: expressed in transfected cells
Kind of test: HiBiT-BRM cell-based degradation assay (Nano-Glo HiBiT lytic detection, 24 h). The following applies: HeLa cell line expressing HiBiT-BRM; for DC50: read-out: BRM HiBit Degradation IC50. An outline of the steps: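 Luminescence from LgBiT complementation quantified remaining HiBiT-BRM in stably expressing HeLa cells after 24 h compound exposure (top final dose 30 μM, 3-fold, 10 points, duplicate). Degradation expressed as percent relative to DMSO and a 2 μM reference degrader.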
In general terms: The HiBiT peptide binds its large partner to form an active luciferase.

Molecules are shown by their SMILES.

T2 sequence (P51531 whole entry, the tested form may be a part): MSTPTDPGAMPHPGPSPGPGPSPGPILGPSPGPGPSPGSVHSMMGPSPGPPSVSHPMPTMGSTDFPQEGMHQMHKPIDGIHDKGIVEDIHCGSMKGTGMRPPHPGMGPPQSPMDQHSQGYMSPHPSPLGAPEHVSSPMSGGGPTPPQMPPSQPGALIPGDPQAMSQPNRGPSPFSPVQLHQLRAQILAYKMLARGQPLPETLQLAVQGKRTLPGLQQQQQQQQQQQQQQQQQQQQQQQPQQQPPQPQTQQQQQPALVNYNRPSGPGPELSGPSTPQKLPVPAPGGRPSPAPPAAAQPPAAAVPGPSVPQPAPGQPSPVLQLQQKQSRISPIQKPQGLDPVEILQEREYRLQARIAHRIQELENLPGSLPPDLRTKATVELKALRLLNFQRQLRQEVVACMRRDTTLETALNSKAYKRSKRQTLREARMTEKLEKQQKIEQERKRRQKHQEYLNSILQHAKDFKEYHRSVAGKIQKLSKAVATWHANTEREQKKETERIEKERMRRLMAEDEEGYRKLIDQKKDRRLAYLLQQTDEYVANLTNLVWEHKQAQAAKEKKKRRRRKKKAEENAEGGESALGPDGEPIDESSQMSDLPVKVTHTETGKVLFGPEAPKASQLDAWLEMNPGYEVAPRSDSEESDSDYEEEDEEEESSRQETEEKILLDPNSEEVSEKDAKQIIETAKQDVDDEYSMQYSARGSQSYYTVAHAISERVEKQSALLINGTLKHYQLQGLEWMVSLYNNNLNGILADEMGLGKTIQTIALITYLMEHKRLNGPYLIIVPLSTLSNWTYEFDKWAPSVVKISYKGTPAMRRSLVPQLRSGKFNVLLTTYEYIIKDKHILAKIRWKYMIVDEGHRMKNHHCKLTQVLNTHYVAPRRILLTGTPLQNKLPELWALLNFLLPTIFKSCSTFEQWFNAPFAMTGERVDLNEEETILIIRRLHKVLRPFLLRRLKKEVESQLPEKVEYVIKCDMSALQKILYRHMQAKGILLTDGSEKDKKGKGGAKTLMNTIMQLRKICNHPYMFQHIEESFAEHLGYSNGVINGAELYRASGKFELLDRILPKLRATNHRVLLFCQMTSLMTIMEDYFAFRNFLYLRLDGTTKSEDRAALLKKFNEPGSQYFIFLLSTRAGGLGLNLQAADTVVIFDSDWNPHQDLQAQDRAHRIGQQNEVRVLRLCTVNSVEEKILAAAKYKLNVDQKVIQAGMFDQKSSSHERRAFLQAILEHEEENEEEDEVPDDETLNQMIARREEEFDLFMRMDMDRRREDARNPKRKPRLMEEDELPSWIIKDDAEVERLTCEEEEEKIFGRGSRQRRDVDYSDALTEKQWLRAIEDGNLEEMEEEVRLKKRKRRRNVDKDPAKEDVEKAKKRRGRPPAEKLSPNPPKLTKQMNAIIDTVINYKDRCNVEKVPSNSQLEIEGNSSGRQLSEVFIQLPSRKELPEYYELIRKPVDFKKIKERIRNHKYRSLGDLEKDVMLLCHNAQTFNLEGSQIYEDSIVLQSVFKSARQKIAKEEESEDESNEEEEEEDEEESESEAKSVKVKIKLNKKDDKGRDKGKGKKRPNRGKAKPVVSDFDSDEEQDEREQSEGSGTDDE
T1 sequence (P51532 whole entry, the tested form may be a part): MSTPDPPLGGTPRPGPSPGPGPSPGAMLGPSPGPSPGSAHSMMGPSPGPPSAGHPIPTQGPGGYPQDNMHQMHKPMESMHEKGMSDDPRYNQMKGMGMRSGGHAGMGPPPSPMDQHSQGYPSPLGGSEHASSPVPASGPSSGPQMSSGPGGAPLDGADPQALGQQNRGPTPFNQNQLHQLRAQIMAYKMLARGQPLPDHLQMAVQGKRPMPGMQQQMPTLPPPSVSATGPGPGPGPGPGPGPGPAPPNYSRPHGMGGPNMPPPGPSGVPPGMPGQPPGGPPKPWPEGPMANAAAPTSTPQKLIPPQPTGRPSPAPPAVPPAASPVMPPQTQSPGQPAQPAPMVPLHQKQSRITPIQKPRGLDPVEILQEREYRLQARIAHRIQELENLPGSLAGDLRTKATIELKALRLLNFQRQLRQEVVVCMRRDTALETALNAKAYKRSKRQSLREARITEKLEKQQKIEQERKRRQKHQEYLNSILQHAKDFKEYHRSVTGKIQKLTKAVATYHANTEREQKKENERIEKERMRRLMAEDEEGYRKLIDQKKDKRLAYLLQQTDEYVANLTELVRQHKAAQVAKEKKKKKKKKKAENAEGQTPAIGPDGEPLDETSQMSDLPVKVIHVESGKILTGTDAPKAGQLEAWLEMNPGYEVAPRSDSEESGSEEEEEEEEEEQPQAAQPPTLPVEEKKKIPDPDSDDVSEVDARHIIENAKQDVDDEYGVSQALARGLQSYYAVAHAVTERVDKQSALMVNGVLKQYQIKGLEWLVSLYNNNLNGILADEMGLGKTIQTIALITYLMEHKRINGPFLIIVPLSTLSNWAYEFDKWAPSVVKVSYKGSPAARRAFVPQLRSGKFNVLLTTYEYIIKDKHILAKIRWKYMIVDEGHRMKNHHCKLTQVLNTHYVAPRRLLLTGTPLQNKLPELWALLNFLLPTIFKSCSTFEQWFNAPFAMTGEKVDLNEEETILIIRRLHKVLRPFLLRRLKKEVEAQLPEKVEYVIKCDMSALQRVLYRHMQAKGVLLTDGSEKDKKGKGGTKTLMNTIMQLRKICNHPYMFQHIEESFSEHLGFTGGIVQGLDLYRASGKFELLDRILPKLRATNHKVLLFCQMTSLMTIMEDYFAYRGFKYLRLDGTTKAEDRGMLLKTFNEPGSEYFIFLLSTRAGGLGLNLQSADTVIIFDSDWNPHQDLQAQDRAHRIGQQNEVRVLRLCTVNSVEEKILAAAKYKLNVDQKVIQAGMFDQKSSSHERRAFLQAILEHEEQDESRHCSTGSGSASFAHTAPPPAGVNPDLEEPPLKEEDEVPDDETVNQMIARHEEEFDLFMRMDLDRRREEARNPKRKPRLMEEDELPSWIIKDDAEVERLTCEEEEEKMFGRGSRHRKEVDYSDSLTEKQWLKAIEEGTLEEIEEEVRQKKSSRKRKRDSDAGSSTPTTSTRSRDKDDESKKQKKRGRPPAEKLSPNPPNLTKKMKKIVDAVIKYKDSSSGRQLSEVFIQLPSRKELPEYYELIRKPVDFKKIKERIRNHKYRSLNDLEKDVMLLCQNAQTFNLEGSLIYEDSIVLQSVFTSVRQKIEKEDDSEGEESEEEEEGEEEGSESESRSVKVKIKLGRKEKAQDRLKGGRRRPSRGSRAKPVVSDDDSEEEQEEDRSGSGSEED

As for `C#Cc1ccc(CNC(=O)[C@@H]2C[C@@H](O)CN2C(=O)C(c2cc(N3CC4(CC(c5cc6nnc(-c7ccccc7O)cc6n5C5CCC5)C4)C3)no2)C(C)C)c(OCCCOC)c1` (stereo partly drawn) [Compound 52, (2S,4R)-1-(2-(3-(6-(5-cyclobutyl-3-(2-hydroxyphenyl)-5H-pyrrolo[3,2-c]pyridazin-6-yl)-2-azaspiro[3.3]heptan-2-yl)isoxazol-5-yl)-3-methylbutanoyl)-N-(4-ethynyl-2-(3-methoxypropoxy)benzyl)-4-hydroxypyrrolidine-2-carboxamide], in test [1], the Dmax was under 50%. For the same compound, at HiBit-BRM fusion protein, the “BRM HiBit Degradation Maximum (%)” value was “A (“A” indicates maximum degradation ≥75%)” and the DC50 is under 10 nM.
For `C#CCNC(=O)[C@@H]1C[C@@H](O)CN1C(=O)C(c1cc(N2CC3(CC(c4cc5nnc(-c6ccccc6O)cc5n4C4CCC4)C3)C2)no1)C(C)C` (stereo partly drawn) [Compound 53, (2S,4R)-1-(2-(3-(6-(5-cyclobutyl-3-(2-hydroxyphenyl)-5H-pyrrolo[3,2-c]pyridazin-6-yl)-2-azaspiro[3.3]heptan-2-yl)isoxazol-5-yl)-3-methylbutanoyl)-4-hydroxy-N-(prop-2-yn-1-yl)pyrrolidine-2-carboxamide], in that order: under 50%, “A (“A” indicates maximum degradation ≥75%)” and over 10 nM.
On the same counts, the results for `CC(C)NC(=O)[C@@H]1C[C@@H](O)CN1C(=O)C(c1cc(N2CC3(CC(c4cc5nnc(-c6ccccc6O)cc5n4C4CCC4)C3)C2)no1)C(C)C` (stereo partly drawn) [Compound 54, (2S,4R)-1-(2-(3-(6-(5-cyclobutyl-3-(2-hydroxyphenyl)-5H-pyrrolo[3,2-c]pyridazin-6-yl)-2-azaspiro[3.3]heptan-2-yl)isoxazol-5-yl)-3-methylbutanoyl)-4-hydroxy-N-isopropylpyrrolidine-2-carboxamide] are under 50%, “A (“A” indicates maximum degradation ≥75%)” and over 10 nM.
On the same counts, the results for `CC(C)C(C(=O)N1C[C@H](O)C[C@H]1C(=O)NCC1CC1)c1cc(N2CC3(CC(c4cc5nnc(-c6ccccc6O)cc5n4C4CCC4)C3)C2)no1` (stereo partly drawn) [Compound 55, (2S,4R)-1-(2-(3-(6-(5-cyclobutyl-3-(2-hydroxyphenyl)-5H-pyrrolo[3,2-c]pyridazin-6-yl)-2-azaspiro[3.3]heptan-2-yl)isoxazol-5-yl)-3-methylbutanoyl)-N-(cyclopropylmethyl)-4-hydroxypyrrolidine-2-carboxamide] are under 50%, “A (“A” indicates maximum degradation ≥75%)” and over 10 nM.
Take `CC(C)C(C(=O)N1C[C@H](O)C[C@H]1C(=O)NC1CC1)c1cc(N2CC3(CC(c4cc5nnc(-c6ccccc6O)cc5n4C4CCC4)C3)C2)no1` (stereo partly drawn) [Compound 56, (2S,4R)-1-(2-(3-(6-(5-cyclobutyl-3-(2-hydroxyphenyl)-5H-pyrrolo[3,2-c]pyridazin-6-yl)-2-azaspiro[3.3]heptan-2-yl)isoxazol-5-yl)-3-methylbutanoyl)-N-cyclopropyl-4-hydroxypyrrolidine-2-carboxamide]: the Dmax in test [1] is under 50%. Further, on HiBit-BRM fusion protein, the “BRM HiBit Degradation Maximum (%)” value is on record as “A (“A” indicates maximum degradation ≥75%)” and the DC50 was over 10 nM.
For `C#Cc1ccc(CNC(=O)[C@@H]2C[C@@H](O)CN2C(=O)C(c2cc(N3CC4(CC(c5cc6nnc(-c7ccccc7O)cc6n5C5CCC5)C4)C3)no2)C(C)C)cc1` (stereo partly drawn) [Compound 57, (2S,4R)-1-(2-(3-(6-(5-cyclobutyl-3-(2-hydroxyphenyl)-5H-pyrrolo[3,2-c]pyridazin-6-yl)-2-azaspiro[3.3]heptan-2-yl)isoxazol-5-yl)-3-methylbutanoyl)-N-(4-ethynylbenzyl)-4-hydroxypyrrolidine-2-carboxamide], in that order: under 50%, “A (“A” indicates maximum degradation ≥75%)” and under 10 nM.
For `C#Cc1ccc(CNC(=O)[C@@H]2C[C@@H](O)CN2C(=O)C(c2cc(N3CC4(CC(c5cc6nnc(-c7ccccc7O)cc6n5C5CCC5)C4)C3)no2)C(C)C)c(OC)c1` (stereo partly drawn) [Compound 58, (2S,4R)-1-(2-(3-(6-(5-cyclobutyl-3-(2-hydroxyphenyl)-5H-pyrrolo[3,2-c]pyridazin-6-yl)-2-azaspiro[3.3]heptan-2-yl)isoxazol-5-yl)-3-methylbutanoyl)-N-(4-ethynyl-2-methoxybenzyl)-4-hydroxypyrrolidine-2-carboxamide], in that order: under 50%, “A (“A” indicates maximum degradation ≥75%)” and under 10 nM.
For `C#Cc1ccc(CNC(=O)[C@@H]2C[C@@H](O)CN2C(=O)C(c2cc(N3CC4(CC(c5cc6nnc(-c7ccccc7O)cc6n5C5CCC5)C4)C3)no2)C(C)C)c(Cl)c1` (stereo partly drawn) [Compound 59, (2S,4R)-N-(2-chloro-4-ethynylbenzyl)-1-(2-(3-(6-(5-cyclobutyl-3-(2-hydroxyphenyl)-5H-pyrrolo[3,2-c]pyridazin-6-yl)-2-azaspiro[3.3]heptan-2-yl)isoxazol-5-yl)-3-methylbutanoyl)-4-hydroxypyrrolidine-2-carboxamide], the Dmax in test [1] is under 50%. Also, at HiBit-BRM fusion protein, the “BRM HiBit Degradation Maximum (%)” value was “A (“A” indicates maximum degradation ≥75%)” and the DC50 is over 10 nM.
On the same counts, the results for `C#Cc1ccc([C@H](C)NC(=O)[C@@H]2C[C@@H](O)CN2C(=O)C(c2cc(N3CC4(CC(c5cc6nnc(-c7ccccc7O)cc6n5C5CCC5)C4)C3)no2)C(C)C)cc1` (stereo partly drawn) [Compound 60, (2S,4R)-1-(2-(3-(6-(5-cyclobutyl-3-(2-hydroxyphenyl)-5H-pyrrolo[3,2-c]pyridazin-6-yl)-2-azaspiro[3.3]heptan-2-yl)isoxazol-5-yl)-3-methylbutanoyl)-N-((S)-1-(4-ethynylphenyl)ethyl)-4-hydroxypyrrolidine-2-carboxamide] are under 50%, “A (“A” indicates maximum degradation ≥75%)” and under 10 nM.
For the compound `CNC(=O)[C@@H]1C[C@@H](O)CN1C(=O)[C@@H](c1cc(N2CC3(CC(c4cc5nnc(-c6ccccc6O)cc5n4C4CCC4)C3)C2)no1)C(C)C` [Compound 61, (2S,4R)-1-((R)-2-(3-(6-(5-cyclobutyl-3-(2-hydroxyphenyl)-5H-pyrrolo[3,2-c]pyridazin-6-yl)-2-azaspiro[3.3]heptan-2-yl)isoxazol-5-yl)-3-methylbutanoyl)-4-hydroxy-N-methylpyrrolidine-2-carboxamide], in test [1], the Dmax was under 50%. For the same compound, at HiBit-BRM fusion protein, the “BRM HiBit Degradation Maximum (%)” value was “A (“A” indicates maximum degradation ≥75%)” and the DC50 is over 10 nM.
`Cc1ncsc1-c1ccc([C@H](C)NC(=O)[C@@H]2C[C@@H](O)CN2C(=O)[C@@H](c2cc(-c3cnc(N4CC5(CC(c6cc7nnc(-c8ccccc8O)cc7n6C6CCC6)C5)C4)nc3)no2)C(C)C)cc1` [Compound 62, (2S,4R)-1-((R)-2-(3-(2-(6-(5-cyclobutyl-3-(2-hydroxyphenyl)-5H-pyrrolo[3,2-c]pyridazin-6-yl)-2-azaspiro[3.3]heptan-2-yl)pyrimidin-5-yl)isoxazol-5-yl)-3-methylbutanoyl)-4-hydroxy-N-((S)-1-(4-(4-methylthiazol-5-yl)phenyl)ethyl)pyrrolidine-2-carboxamide]: the Dmax in test [1] is over 50%. In addition, in test [1] (read-out: BRMG1 HiBit Degradation IC50), the DC50 is over 10 nM. For the same compound, on HiBit-BRM fusion protein, the “BRM HiBit Degradation Maximum (%)” value was “A (“A” indicates maximum degradation ≥75%)” and the DC50 was under 10 nM.
With `CC(C)[C@@H](C(=O)N1C[C@H](O)C[C@H]1C(=O)N[C@@H](C)c1ccc(F)cc1)c1cc(N2CC3(CC(c4cc5nnc(-c6ccccc6O)cc5n4C4CCC4)C3)C2)no1` [Compound 63, (2S,4R)-1-((R)-2-(3-(6-(5-cyclobutyl-3-(2-hydroxyphenyl)-5H-pyrrolo[3,2-c]pyridazin-6-yl)-2-azaspiro[3.3]heptan-2-yl)isoxazol-5-yl)-3-methylbutanoyl)-N-((S)-1-(4-fluorophenyl)ethyl)-4-hydroxypyrrolidine-2-carboxamide], the Dmax in test [1] was under 50%. Moreover, on HiBit-BRM fusion protein, the “BRM HiBit Degradation Maximum (%)” value was “A (“A” indicates maximum degradation ≥75%)” and the DC50 was over 10 nM.
As to `Cc1ncsc1-c1ccc([C@H](C)NC(=O)[C@@H]2C[C@@H](O)CN2C(=O)[C@@H](c2cc(-c3cnc(N4CC5(CC(c6cc7nnc(-c8ccccc8O)cc7n6C67CC(C6)C7)C5)C4)nc3)no2)C(C)C)cc1` [Compound 64, (2S,4R)-1-((R)-2-(3-(2-(6-(5-(bicyclo[1.1.1]pentan-1-yl)-3-(2-hydroxyphenyl)-5H-pyrrolo[3,2-c]pyridazin-6-yl)-2-azaspiro[3.3]heptan-2-yl)pyrimidin-5-yl)isoxazol-5-yl)-3-methylbutanoyl)-4-hydroxy-N-((S)-1-(4-(4-methylthiazol-5-yl)phenyl)ethyl)pyrrolidine-2-carboxamide], in test [1], the Dmax is under 50%. At HiBit-BRM fusion protein, the “BRM HiBit Degradation Maximum (%)” value is reported as “A (“A” indicates maximum degradation ≥75%)” and the DC50 was under 10 nM.
